The results in this text go back to ChEMBL document CHEMBL3608208, “Synthesis, antibacterial and QSAR evaluation of 5-oxo and 5-thio derivatives of 1,4-disubstituted tetrazoles” (2015).

Values after ≈ are worked out from the molar mass of the structure shown.

Format in all cases: functional
Experiment [1] deals with Staphylococcus aureus. As to the kind of experiment: Antimicrobial activity against Staphylococcus aureus after 24 hrs by well-diffusion assay. Background: Agar diffusion results depend on both activity and mobility in agar.
The next experiment concerns Streptococcus sp. As to the kind of experiment: Antimicrobial activity against Streptococcus spp. after 24 hrs by well-diffusion assay.
For experiment [2], the system named is Escherichia coli. Kind of experiment: Antimicrobial activity against Escherichia coli after 24 hrs by microbroth dilution assay.
A further experiment deals with Klebsiella pneumoniae. As to the kind of experiment: Antimicrobial activity against Klebsiella pneumoniae after 24 hrs by well-diffusion assay.
Experiment [3] relates to Staphylococcus aureus. Kind of experiment: Antimicrobial activity against Staphylococcus aureus after 24 hrs by microbroth dilution assay.
For experiment [4], the system named is Escherichia coli. Kind of experiment: Antimicrobial activity against Escherichia coli after 24 hrs by well-diffusion assay.
The test system of a further experiment is Pseudomonas aeruginosa. As to the kind of experiment: Antimicrobial activity against Pseudomonas aeruginosa after 24 hrs by well-diffusion assay.
Another experiment relates to Proteus mirabilis. As to the kind of experiment: Antimicrobial activity against Proteus mirabilis after 24 hrs by well-diffusion assay.
A further experiment concerns Bacillus subtilis. Kind of experiment: Antimicrobial activity against Bacillus subtilis after 24 hrs by well-diffusion assay.

Take `Sc1nnnn1-c1ccccc1`: the “inhibition zone (IZ)” value with Staphylococcus aureus [1] turned out to be 18 mm; in the experiment on Streptococcus sp. it was 12 mm; with Klebsiella pneumoniae it was 8 mm; in the experiment with Escherichia coli [4], 14 mm; in the experiment on Pseudomonas aeruginosa, 11 mm; in the experiment with Proteus mirabilis, 19 mm. Also, the “inhibition zone (IZ)” value in the experiment with Bacillus subtilis is given as 16 mm. The minimal inhibitory concentration (MIC) in the experiment with Escherichia coli [2] was 1.77 µg/mL (≈ 9.91 µM); against Staphylococcus aureus [3] it was 1.76 µg/mL (≈ 9.9 µM).
For the compound `c1ccc(CSc2nnnn2-c2ccccc2)cc1`, the “inhibition zone (IZ)” value with Staphylococcus aureus [1], in the experiment on Streptococcus sp., in the experiment with Klebsiella pneumoniae, in the experiment on Escherichia coli [4], in the experiment on Pseudomonas aeruginosa and in the experiment with Proteus mirabilis was 0 mm in each case. Also, in the experiment with Bacillus subtilis, the “inhibition zone (IZ)” value is on record as 0 mm.
As for `O=c1n(Cc2ccccc2)nnn1-c1ccccc1`, the “inhibition zone (IZ)” value is given as 0 mm with Staphylococcus aureus [1]; 0 mm with Streptococcus sp.; 0 mm in the experiment with Klebsiella pneumoniae; 0 mm with Escherichia coli [4]; 0 mm in the experiment on Pseudomonas aeruginosa; 7 mm with Proteus mirabilis. Besides, the “inhibition zone (IZ)” value in the experiment with Bacillus subtilis is on record as 0 mm.
For `O=c1n(CCCCCCn2nnn(-c3ccccc3)c2=O)nnn1-c1ccccc1`, the “inhibition zone (IZ)” value with Staphylococcus aureus [1], in the experiment on Streptococcus sp., in the experiment on Klebsiella pneumoniae, with Escherichia coli [4], in the experiment with Pseudomonas aeruginosa and in the experiment with Proteus mirabilis was 0 mm each time. Also, in the experiment with Bacillus subtilis, the “inhibition zone (IZ)” value is on record as 0 mm.
On to `c1ccc(-n2nnnc2SCCCCCCSc2nnnn2-c2ccccc2)cc1`, for which the “inhibition zone (IZ)” value in the experiment on Staphylococcus aureus [1], with Streptococcus sp., with Klebsiella pneumoniae, in the experiment on Escherichia coli [4], in the experiment on Pseudomonas aeruginosa and in the experiment with Proteus mirabilis was 0 mm in each case. The “inhibition zone (IZ)” value in the experiment on Bacillus subtilis came out at 0 mm.
With `CCOC(=O)CSc1nnnn1-c1ccccc1`, the “inhibition zone (IZ)” value in the experiment with Staphylococcus aureus [1] is listed as 9 mm; in the experiment with Streptococcus sp., 13 mm; with Klebsiella pneumoniae, 0 mm; in the experiment with Escherichia coli [4], 0 mm; in the experiment on Pseudomonas aeruginosa, 0 mm; in the experiment with Proteus mirabilis, 14 mm. The “inhibition zone (IZ)” value with Bacillus subtilis is on record as 13 mm. Moreover, the minimal inhibitory concentration (MIC) against Escherichia coli [2] came to 15.9 µg/mL (≈ 60 µM); with Staphylococcus aureus [3], 5.29 µg/mL (≈ 20 µM).
As to `O=C(O)CCC(=O)OCn1nnn(-c2ccccc2)c1=S`, the “inhibition zone (IZ)” value with Staphylococcus aureus [1] is reported as 24 mm; with Streptococcus sp., 19 mm; in the experiment on Klebsiella pneumoniae, 16 mm; with Escherichia coli [4], 11 mm; in the experiment with Pseudomonas aeruginosa, 17 mm; with Proteus mirabilis, 11 mm. For the same compound, in the experiment with Bacillus subtilis, the “inhibition zone (IZ)” value turned out to be 12 mm. The MIC in the experiment on Escherichia coli [2] and in the experiment with Staphylococcus aureus [3] was 1.37 µg/mL (≈ 4.44 µM) throughout.
`O=c1n(CCO)nnn1-c1ccccc1`: the “inhibition zone (IZ)” value with Staphylococcus aureus [1] is given as 0 mm; in the experiment with Streptococcus sp. it was 0 mm; with Klebsiella pneumoniae, 13 mm; in the experiment on Escherichia coli [4], 11 mm; in the experiment on Pseudomonas aeruginosa it was 0 mm; in the experiment on Proteus mirabilis, 12 mm. For the same compound, the “inhibition zone (IZ)” value with Bacillus subtilis is reported as 12 mm. The MIC against Escherichia coli [2] stood at 8 µg/mL (≈ 38.8 µM); in the experiment on Staphylococcus aureus [3] it was 5.29 µg/mL (≈ 25.7 µM).
For `CC(=O)OCCn1nnn(-c2ccccc2)c1=O`, the “inhibition zone (IZ)” value came out at 0 mm in the experiment on Staphylococcus aureus [1]; 0 mm in the experiment with Streptococcus sp.; 0 mm in the experiment with Klebsiella pneumoniae; 12 mm with Escherichia coli [4]; 0 mm in the experiment with Pseudomonas aeruginosa; 15 mm in the experiment with Proteus mirabilis. Further, in the experiment on Bacillus subtilis, the “inhibition zone (IZ)” value was 9 mm. The MIC with Escherichia coli [2] and against Staphylococcus aureus [3] was 37 µg/mL (≈ 149 µM) throughout.
Consider `O=c1n(CCOCc2ccccc2)nnn1-c1ccccc1`, for which the “inhibition zone (IZ)” value with Staphylococcus aureus [1] is 0 mm; in the experiment with Streptococcus sp., 0 mm; with Klebsiella pneumoniae, 0 mm; in the experiment with Escherichia coli [4], 0 mm; in the experiment with Pseudomonas aeruginosa, 0 mm; in the experiment with Proteus mirabilis, 20 mm. In addition, in the experiment on Bacillus subtilis, the “inhibition zone (IZ)” value amounted to 0 mm.
Turning to `O=c1n(CO)nnn1-c1ccccc1`, the “inhibition zone (IZ)” value in the experiment on Staphylococcus aureus [1] was found to be 38 mm; in the experiment on Streptococcus sp., 42 mm; in the experiment on Klebsiella pneumoniae, 22 mm; with Escherichia coli [4] it was 30 mm; in the experiment with Pseudomonas aeruginosa it was 24 mm; in the experiment on Proteus mirabilis, 34 mm. Moreover, in the experiment with Bacillus subtilis, the “inhibition zone (IZ)” value stood at 33 mm. In addition, the MIC was determined as 1.76 µg/mL (≈ 9.16 µM) with Escherichia coli [2] and 0.19 µg/mL (≈ 0.989 µM) with Staphylococcus aureus [3].
For the compound `OCn1nnn(-c2ccccc2)c1=S`, the “inhibition zone (IZ)” value is reported as 32 mm in the experiment with Staphylococcus aureus [1]; 42 mm in the experiment on Streptococcus sp.; 19 mm in the experiment on Klebsiella pneumoniae; 31 mm in the experiment on Escherichia coli [4]; 23 mm in the experiment on Pseudomonas aeruginosa; 26 mm with Proteus mirabilis. For the same compound, the “inhibition zone (IZ)” value with Bacillus subtilis turned out to be 30 mm. The MIC worked out at 0.58 µg/mL (≈ 2.79 µM) against Escherichia coli [2] and 1.76 µg/mL (≈ 8.45 µM) in the experiment on Staphylococcus aureus [3].
Regarding `CC(=O)OCn1nnn(-c2ccccc2)c1=O`, the “inhibition zone (IZ)” value was 9 mm in the experiment with Staphylococcus aureus [1]; 10 mm in the experiment on Streptococcus sp.; 0 mm in the experiment with Klebsiella pneumoniae; 0 mm in the experiment with Escherichia coli [4]; 0 mm in the experiment with Pseudomonas aeruginosa; 11 mm in the experiment on Proteus mirabilis. The “inhibition zone (IZ)” value in the experiment on Bacillus subtilis came out at 14 mm. The minimal inhibitory concentration (MIC) in the experiment with Escherichia coli [2] came to 13.9 µg/mL (≈ 59.3 µM); against Staphylococcus aureus [3] it was 2.66 µg/mL (≈ 11.4 µM).
Consider `CC(=O)OCn1nnn(-c2ccccc2)c1=S`, for which the “inhibition zone (IZ)” value is reported as 10 mm in the experiment on Staphylococcus aureus [1]; 0 mm with Streptococcus sp.; 0 mm in the experiment on Klebsiella pneumoniae; 0 mm in the experiment on Escherichia coli [4]; 0 mm in the experiment on Pseudomonas aeruginosa; 15 mm with Proteus mirabilis. In the experiment on Bacillus subtilis, the “inhibition zone (IZ)” value stood at 12 mm. Moreover, the minimal inhibitory concentration (MIC) against Escherichia coli [2] was 13.9 µg/mL (≈ 55.5 µM); with Staphylococcus aureus [3], 4.62 µg/mL (≈ 18.5 µM).
With `O=c1[nH]nnn1-c1ccccc1`, the “inhibition zone (IZ)” value with Staphylococcus aureus [1] turned out to be 12 mm; with Streptococcus sp., 11 mm; with Klebsiella pneumoniae, 9 mm; with Escherichia coli [4] it was 10 mm; in the experiment on Pseudomonas aeruginosa, 0 mm; in the experiment on Proteus mirabilis it was 0 mm. In addition, the “inhibition zone (IZ)” value in the experiment with Bacillus subtilis is recorded as 14 mm. The minimal inhibitory concentration (MIC) against Escherichia coli [2] and against Staphylococcus aureus [3] was 1.54 µg/mL (≈ 9.52 µM) throughout.

As a reminder, the MIC is the lowest concentration that inhibits growth of the organism. A low value points to a more susceptible organism.
